Reference: patent US20250346573A1, “AZAQUINOLINONE DERIVATIVE, PREPARATION METHOD THEREFOR AND USE THEREOF” (CHENGDU EASTON BIOPHARMACEUTICALS CO., LTD., priority 2022, published 2025)

Columns and labels:
[1] = system: BRCA1-mutated HCC1395 cells; assay: Proliferation inhibitory test of BRCA1-mutated HCC1395 cells (CCK-8); format: cell-based; settings: Homo sapiens, 120 h, 5 days, read-out: IC50 (nM), inhibitory activity against BRCA1-mutated HCC1395 cells
Experimental: (§1) CCK-8 was used to measure the content of mitochondrial dehydrogenase in cells at different drug concentrations, and the luminescence intensity was used to reflect the cell activity. The IC50 values of different compounds on BRCA1-mutated HCC1395 cells were calculated using the survival rate, and the proliferation inhibitory effect of the compounds of the present disclosure on BRCA1-mutated HCC1395 cells was studied to evaluate the anti-tumor efficacy of the test compounds at the cellular level.
(§2) On Day −1, the cells were inoculated into the 96-well cell culture plate at a fixed cell density and then placed in the 5% CO2 cell incubator for culture overnight at 37° C.
(§3) On Day 0, the compound to be tested was prepared into a 10 mM stock solution and diluted into 9 concentration points at the concentration of 1,000 nM, 300 nM, 100 nM, 30 nM, 10 nM, 3 nM, 1 nM, 0.3 nM and 0.1 nM in two duplicated wells. A fixed volume of the diluted compound was added to the 96-well cell culture plate and then placed in the 5% CO2 cell incubator for culture at 37° C. for 5 days.
(§4) On Day 5, a fixed volume of CCK-8 was added to the 96-well cell culture plate and incubated in the 5% CO2 cell incubator at 37° C. for 1.5 h, and the plate was read by a chemiluminescence module of the multifunctional microplate reader.
(§5) With the logarithmic value of the concentration as an X axis and the survival percentage as a Y axis, a dose-effect curve was fitted by using a log(inhibitor) vs. response-Variable slop (Four parameters) formula of the analysis software Graphpad Prism 9, thereby obtaining the IC50 value of the anti-proliferation inhibitory activity of each compound against BRCA1-mutated HCC1395 cells.

[2] = system: BRCA1-mutated MDA-MB-436 cells; assay: Proliferation inhibitory test of BRCA1-mutated MDA-MB-436 cells (CCK-8); format: cell-based; settings: Homo sapiens, 120 h, 5 days, read-out: IC50 (nM), inhibitory activity against BRCA1-mutated MDA-MB-436 cells
Experimental: as §1, with “MDA-MB-436” for “HCC1395”
as §2, §3, §4
as §5, with “MDA-MB-436” for “HCC1395”

[3] = Study on pharmacokinetics of rats (oral gavage, plasma LC-MS/MS); format: in vivo; settings: female SD rats; for AUC(0-t) / Cmax / half-life: rat
Experimental: With SD rats as test animals, the plasma concentration in the plasma of rats at different time points after oral administration of the compounds of the present application was determined by an LC-MS/MS method. Pharmacokinetic parameters of the compounds of the present application in rats were obtained to study pharmacokinetic characteristics.
SD rats, female, body weight 180-220 g, 3 rats per group. After being purchased, the animals were fed in an animal house for an adaptation period of at least 3 days and then used for testing after passing quarantine.
3.1. Grouping: The SD rats were randomly grouped according to Table 4, which had no statistical difference in the body weight between groups after grouping.
3.2. Vehicle: 10% DMSO and 90% (20% SBE-β-CD in saline).
According to Table 4, each compound was prepared into a clear solution with the vehicle, respectively, and each group was administered by gavage with the corresponding test drug. Before administration, and at 15 min, 30 min, 1 h, 2 h, 4 h, 6 h, 8 h and 24 h after the administration, a fixed volume of blood was collected through sinuses jugularis, placed in an EDTA-K2 anticoagulant tube, and centrifuged at 4,000 rpm for 10 min to separate the plasma in a centrifuge tube. The plasma was frozen in a refrigerator at −80° C.
The plasma stored at −80° C. at each time point was taken out, and a fixed volume of acetonitrile was added thereto. After being vortexed at 1,500 rpm for 2 min, it was centrifuged for 15 min (3,500 r/min). A fixed volume of solution supernatant was taken for LC-MS/MS analysis.
The pharmacokinetic behaviors of the test compounds were fitted with a non-compartmental model, and the main pharmacokinetic parameters were calculated using DAS3.31 software.

SMILES: CCc1cc2ncc(CN3CCN(c4ccc(C(=O)NC)nc4)CC3)cc2[nH]c1=O [AZD5305, reference compound]
- IC50 [1]: 1.76 nM
- IC50 [2]: 0.67 nM

SMILES: CNC(=O)c1ccc(N2CCN(Cc3ccc4nc(C)c(=O)[nH]c4c3F)CC2)c(F)n1 [AZD9574, reference compound]
- Cl_F_obs ([3]; po. 3 mg/kg): 6.17 mL/min/kg
- AUC(0-t) ([3]; po. 3 mg/kg): 6460 ng·h/mL
- Cmax ([3]; po. 3 mg/kg): 702 ng/mL
- half-life ([3]; po. 3 mg/kg): 6.06 h
- IC50 [1]: 9.93 nM
- IC50 [2]: 21.8 nM

SMILES: CNC(=O)c1ccc(N2CCN(Cc3cc(F)c4nc(C)c(=O)[nH]c4c3)CC2)c(C)n1 [Compound 6, 5-(4-((8-fluoro-2-methyl-3-oxo-3,4-dihydroquinoxalin-6-yl)methyl)piperazin-1-yl)-N,6-dimethylpicolinamide]
- Cl_F_obs ([3]; po. 10 mg/kg): 2.17 mL/min/kg
- AUC(0-t) ([3]; po. 10 mg/kg): 72600 ng·h/mL
- Cmax ([3]; po. 10 mg/kg): 11300 ng/mL
- half-life ([3]; po. 10 mg/kg): 6.07 h
- IC50 [1]: 2.45 nM
- IC50 [2]: 2.06 nM

SMILES: CNC(=O)c1ccc(N2CCN(Cc3cc(F)c4nc(C)c(=O)[nH]c4c3)CC2)c(Cl)n1 [Compound 7, 6-chloro-5-(4-((8-fluoro-2-methyl-3-oxo-3,4-dihydroquinoxalin-6-yl)methyl)piperazin-1-yl)-N-methylpicolinamide]
- IC50 [2]: 2.31 nM

SMILES: CNC(=O)c1ccc(N2CCN(Cc3cc4[nH]c(=O)c(C)nc4c(F)c3F)CC2)cn1 [Compound 8, 5-(4-((7,8-difluoro-2-methyl-3-oxo-3,4-dihydroquinoxalin-6-yl)methyl)piperazin-1-yl)-N-methylpicolinamide]
- IC50 [2]: 11.1 nM

SMILES: CNC(=O)c1ccc(N2CCN(Cc3cc4[nH]c(=O)c(C)nc4c(F)c3F)CC2)c(C)n1 [Compound 9, 5-(4-((7,8-difluoro-2-methyl-3-oxo-3,4-dihydroquinoxalin-6-yl)methyl)piperazin-1-yl)-N,6-dimethylpicolinamide]
- Cl_F_obs ([3]; po. 10 mg/kg): 0.5 mL/min/kg
- AUC(0-t) ([3]; po. 10 mg/kg): 340000 ng·h/mL
- Cmax ([3]; po. 10 mg/kg): 31900 ng/mL
- half-life ([3]; po. 10 mg/kg): 7.74 h
- IC50 [1]: 2.29 nM
- IC50 [2]: 5.84 nM

SMILES: CNC(=O)c1ccc(N2CCN(Cc3cc(C)c4nc(C)c(=O)[nH]c4c3)CC2)c(C)n1 [Compound 10, 5-(4-((2,8-dimethyl-3-oxo-3,4-dihydroquinoxalin-6-yl)methyl)piperazin-1-yl)-N,6-dimethylpicolinamide]
- IC50 [2]: 3.63 nM

SMILES: Cc1nc2c(C)cc(CN3CCN(c4ccc(C#N)c(F)c4)CC3)cc2[nH]c1=O [Compound 19, 4-(4-((2,8-dimethyl-3-oxo-3,4-dihydroquinoxalin-6-yl)methyl)piperazin-1-yl)-2-fluorobenzonitrile]
- IC50 [2]: 8.31 nM

SMILES: COCCNC(=O)c1ccc(N2CCN(Cc3cc(C)c4nc(C)c(=O)[nH]c4c3)CC2)c(C)n1 [Compound 22, 5-(4-((2,8-dimethyl-3-oxo-3,4-dihydroquinoxalin-6-yl)methyl)piperazin-1-yl)-N-(2-methoxyethyl)-6-methylpicolinamide]
- IC50 [2]: 6.95 nM

SMILES: Cc1nc(C(=O)NCC(F)F)ccc1N1CCN(Cc2cc(F)c3nc(C)c(=O)[nH]c3c2)CC1 [Compound 28, N-(2,2-difluoroethyl)-5-(4-((8-fluoro-2-methyl-3-oxo-3,4-dihydroquinoxalin-6-yl)methyl)piperazin-1-yl)-6-methylpicolinamide]
- IC50 [1]: 2.03 nM
- IC50 [2]: 4.53 nM

SMILES: Cc1nc(C(=O)NCCF)ccc1N1CCN(Cc2cc(F)c3nc(C)c(=O)[nH]c3c2)CC1 [Compound 29, 5-(4-((8-fluoro-2-methyl-3-oxo-3,4-dihydroquinoxalin-6-yl)methyl)piperazin-1-yl)-N-(2-fluoroethyl)-6-methylpicolinamide]
- IC50 [2]: 9.83 nM

SMILES: CCc1nc2c(F)cc(CN3CCN(c4ccc(C(=O)NCCF)nc4C)CC3)cc2[nH]c1=O [Compound 30, 5-(4-((2-ethyl-8-fluoro-3-oxo-3,4-dihydroquinoxalin-6-yl)methyl)piperazin-1-yl)-N-(2-fluoroethyl)-6-methylpicolinamide]
- IC50 [2]: 5.94 nM

SMILES: CCc1nc2c(F)cc(CN3CCN(c4ccc(C(=O)NCCO)nc4C)CC3)cc2[nH]c1=O [Compound 31, 5-(4-((2-ethyl-8-fluoro-3-oxo-3,4-dihydroquinoxalin-6-yl)methyl)piperazin-1-yl)-N-(2-hydroxyethyl)-6-methylpicolinamide]
- IC50 [2]: 8.77 nM

SMILES: CCc1nc2c(F)cc(CN3CCN(c4ccc(C(=O)NC)nc4C)CC3)cc2[nH]c1=O [Compound 32, 5-(4-((2-ethyl-8-fluoro-3-oxo-3,4-dihydroquinoxalin-6-yl)methyl)piperazin-1-yl)-N,6-dimethylpicolinamide]
- Cl_F_obs ([3]; po. 3 mg/kg): 0.83 mL/min/kg
- AUC(0-t) ([3]; po. 3 mg/kg): 50600 ng·h/mL
- Cmax ([3]; po. 3 mg/kg): 7180 ng/mL
- half-life ([3]; po. 3 mg/kg): 7.39 h
- IC50 [1]: 1.82 nM
- IC50 [2]: 5.24 nM

SMILES: CCc1nc2c(F)cc(CN3CCN(c4ccc(C(=O)NCC5COC5)nc4C)CC3)cc2[nH]c1=O [Compound 33, 5-(4-((2-ethyl-8-fluoro-3-oxo-3,4-dihydroquinoxalin-6-yl)methyl)piperazin-1-yl)-6-methyl-N-(oxetan-3-ylmethyl)picolinamide]
- IC50 [2]: 6.91 nM

SMILES: CCc1nc2c(F)cc(CN3CCN(c4ccc(C(=O)NCCOC)nc4C)CC3)cc2[nH]c1=O [Compound 34, 5-(4-((2-ethyl-8-fluoro-3-oxo-3,4-dihydroquinoxalin-6-yl)methyl)piperazin-1-yl)-N-(2-methoxyethyl)-6-methylpicolinamide]
- Cl_F_obs ([3]; po. 3 mg/kg): 3 mL/min/kg
- AUC(0-t) ([3]; po. 3 mg/kg): 17000 ng·h/mL
- Cmax ([3]; po. 3 mg/kg): 3230 ng/mL
- half-life ([3]; po. 3 mg/kg): 5.2 h
- IC50 [2]: 5.87 nM

SMILES: CNC(=O)c1ccc(N2CCN(Cc3cc4[nH]c(=O)c(C)nc4cc3OC)CC2)c(Cl)n1 [Compound 37, 6-chloro-5-(4-((7-methoxy-2-methyl-3-oxo-3,4-dihydroquinoxalin-6-yl)methyl)piperazin-1-yl)-N-methylpicolinamide]
- IC50 [1]: 0.95 nM
- IC50 [2]: 4.88 nM

SMILES: CNC(=O)c1ccc(N2CCN(Cc3cc4[nH]c(=O)c(C)nc4cc3OC)CC2)c(C)n1 [Compound 41, 5-(4-((7-methoxy-2-methyl-3-oxo-3,4-dihydroquinoxalin-6-yl)methyl)piperazin-1-yl)-N,6-dimethylpicolinamide]
- IC50 [2]: 6.49 nM

SMILES: CCc1nc2c(F)cc(CN3CCN(c4ccc(C(=O)NC5COC5)nc4C)CC3)cc2[nH]c1=O [Compound 42, 5-(4-((2-ethyl-8-fluoro-3-oxo-3,4-dihydroquinoxalin-6-yl)methyl)piperazin-1-yl)-6-methyl-N-(oxetan-3-yl)picolinamide]
- IC50 [2]: 4.02 nM

SMILES: Cc1nc(C(=O)N[C@@H]2CCOC2)ccc1N1CCN(Cc2cc(F)c3nc(C)c(=O)[nH]c3c2)CC1 [Compound 46, (R)-5-(4-((8-fluoro-2-methyl-3-oxo-3,4-dihydroquinoxalin-6-yl)methyl)piperazin-1-yl)-6-methyl-N-(tetrahydrofuran-3-yl)picolinamide]
- IC50 [2]: 8.38 nM

SMILES: CNC(=O)c1ccc(N2CCN(Cc3cc(Cl)c4nc(C)c(=O)[nH]c4c3)CC2)c(C)n1 [Compound 51, 5-(4-((8-chloro-2-methyl-3-oxo-3,4-dihydroquinoxalin-6-yl)methyl)piperazin-1-yl)-N,6-dimethylpicolinamide]
- IC50 [1]: 1.31 nM
- IC50 [2]: 1.05 nM

SMILES: Cc1nc(C(=O)NCCF)ccc1N1CCN(Cc2cc3[nH]c(=O)c(C)nc3c(F)c2F)CC1 [Compound 54, 5-(4-((7,8-difluoro-2-methyl-3-oxo-3,4-dihydroquinoxalin-6-yl)methyl)piperazin-1-yl)-N-(2-fluoroethyl)-6-methylpicolinamide]
- IC50 [2]: 4.97 nM
